The values that follow come from US7022699B2, “Cyclohexenyl phenyl diazepines vasopressin and oxytocin receptor modulators” (Wyeth, priority 2001, dated 2006).

Molecules are shown by their SMILES.

T1 sequence (P30518 whole entry): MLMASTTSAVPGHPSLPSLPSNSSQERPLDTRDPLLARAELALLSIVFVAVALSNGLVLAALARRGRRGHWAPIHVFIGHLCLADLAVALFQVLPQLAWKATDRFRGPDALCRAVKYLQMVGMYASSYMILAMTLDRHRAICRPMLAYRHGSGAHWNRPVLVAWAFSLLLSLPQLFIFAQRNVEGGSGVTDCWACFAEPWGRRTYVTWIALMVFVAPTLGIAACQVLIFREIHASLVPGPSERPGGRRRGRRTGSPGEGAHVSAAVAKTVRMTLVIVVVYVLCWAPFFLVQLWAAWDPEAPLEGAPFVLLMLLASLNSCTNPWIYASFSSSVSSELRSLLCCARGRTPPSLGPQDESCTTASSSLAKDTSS

The first assay has as its target T1, human vasopressin V2 receptor subtype (Homo sapiens, UniProt P30518).
T1 construct: host or cells: CHO cells, stably transfected (pZeoSV vector); membranes
In words: Vasopressin binding in CHO cell membranes expressing human vasopressin V2 subtype receptors ([3H]arginine vasopressin). Particulars: 100 nM, values without parentheses. The source says: Vasopressin Binding in Chinese Hamster Ovary Cell Membranes Expressing Human Vasopressin V2 Subtype Receptors
Chinese Hamster Ovary (CHO) cells stably transfected with the human V2 subtype receptors were obtained from M. Thibonnier, Case Western Reserve University School of Medicine, Cleveland, Ohio.
A. Passaging and Amplification of Cells:
CHO cells transfected with the human vasopressin V2 subtype receptors obtained from M. Thibonnier (pZeoSV vector) are allowed to grow to confluency (approx. >90%) in T-150 flasks under sterile conditions, in a cell culture medium of F-12 Nutrient Mixture (HAM) with L-glutamine (Gibco Cat. #11765-054) containing 15 mM HEPES (Gibco Cat. #15630-080), 1% antibiotic/antimycotic (add 5 mL 100×, Gibco Cat. #15240-062 per 500 mL F-12), 250 μg/mL Zeocin (add 1.25 mL of 100 mg/mL Invitrogen R-250-01 per 500 mL F-12) and 10% Fetal Bovine Serum (Qualified, heat inactivated, Gibco Cat. #16140-063). The medium is removed by aspiration and the cells washed with 10 mL of Hank's Balanced Salt solution (Gibco Cat. #14175-095). The salt solution is removed by aspiration and the cells trypsinized with 5 mL of trypsin-EDTA (0.05% trypsin, 0.53 mM EDTA-4Na, Gibco Cat. #25300-070) for 1 min. The trypsin is removed by aspiration and the cells dislodged by tapping. Cell Culture medium (e.g. 30 mL for 1:30 split) is immediately added and mixed well to inactivate trypsin. 1 mL of detached cells is added to new culture flasks containing fresh Cell Culture medium (e.g. into 25 mL per T-150 flask), and mixed gently. The cells are incubated at 37° C. in 5% CO2. The medium is changed at 3 to 4 day interval (or as appropriate). The cells grow to confluency (approx. >75%–95%) within 7–8 days. All steps are done under sterile conditions. B. Membrane Preparation: The cells are washed twice gently with Hank's Balanced Salt solution (e.g. use 10 mL per T-150 flask). The excess solution is removed and the cells bathed for 15–30 min. in an enzyme-free Cell Dissociation Buffer (e.g. use 8 mL Hank's Based, Gibco Cat. # 13150-016 per T-150 flask) until cells are loosened. The contents are transferred to centrifuge tubes (50 mL size) kept in ice bath. All subsequent steps are done at 4° C. The tubes are centrifuged at 300×g for 15 min (1380 rpm on SORVAL, Model RT6000D, using rotor for 50 mL tubes). The supernatant is discarded and the cells suspended in homogeneizing buffer (10 mM Tris-HCl containing 0.25 M sucrose and 1 mM EDTA, pH 7.4) ensuring that the volume of the buffer is about ten times the volume of the cell pellet. The cells are pooled into a centrifuge tube (50 mL) and homogenized with Polytron at setting 6 for 10 sec. The homogenate is transferred into a Potter-Elvjehm homogeneizer and homogenized with 3 strokes. The homogenate is centrifuged at 1500×g for 60 min at 4° C. (3100 rpm using SORVAL, model RT6000D, using rotor for 50 mL tubes). The pellet is discarded. The supernatant is centrifuged at 100,000×g for 60 min. at 4° C. (Beckman L8-80M ultracentrifuge; spin at 37,500 rpm with rotor type 70 Ti for 50 mL tubes; 38,000 rpm with type 80Ti for 15 mL tubes; or 35,800 rpm with rotor type 45Ti). The supernantant is discarded and the pellet suspended in 3 to 4 mL of Tris buffer (50 mM TRIS-HCl, pH 7.4). The protein content is estimated by the Bradford or Lowry method. The volume of the membrane suspension is adjusted with the membrane buffer (50 mM Tris-HCl containing 0.1% BSA and 0.1 mM PMSF) to give 3.0 mg/mL (or as appropriate) of protein. The membranes are aliquoted and stored at −70° C. C. Radioligand Binding Assay:
In wells of a 96-well format microtiter plate, is added 90, 110 or 130 μL (to make up a final volume of 200 μL) of assay buffer containing 50 mM of Tris-HCl (pH 7.4), […], 1 mg % aprotinin, 1 mg % leupeptin, 2 mg % 1,10-phenanthroline, 10 mg % trypsin inhibitor, and 0.1 mM PMSF. The inhibitors are added on the day of the experiment. […]
The inhibition is the drop in the measured response relative to a control, in per cent. On to `CC1=C(c2ccc(C(=O)N3Cc4cccn4Cc4ccccc43)cc2C)CCCC1O` (racemic) [Example 5, (10,11-Dihydro-5H-pyrrolo[2,1-c][1,4]benzodiazepin-10-yl)-[4-(3-hydroxy-2-methyl-cyclohex-1-en-1-yl)-3-methyl-phenyl]-methanone], for which the inhibition at 0.1 µM was 2%.
Consider `CC1=C(c2ccc(C(=O)N3Cc4cccn4Cc4ccccc43)cc2C)CCC[C@H]1O` (single isomer, unassigned) [Example 41], for which the inhibition at 0.1 µM turned out to be 40%.
Regarding `CC1=C(c2ccc(C(=O)N3Cc4cccn4Cc4ccccc43)cc2C)CCC[C@@H]1O` (single isomer, unassigned) [Example 43], the inhibition at 0.1 µM was 45%.
Same read-out and setting: in the case of `Cc1cc(C(=O)N2Cc3cccn3Cc3ccccc32)ccc1C1=CCCCC1` [Example 2, (10,11-Dihydro-5H-pyrrolo[2,1-c][1,4]benzodiazepin-10-yl)-(4-cyclohex-1-en-1-yl-3-methyl-phenyl)-methanone] it was 42%.
Take `CC1=C(c2ccc(C(=O)N3Cc4cccn4Cc4ccccc43)cc2C)CCCC1=O` [Example 4, 3-[2-Methyl-4-(5H-pyrrolo[2,1-c][1,4]benzodiazepin-10(11H)-yl-carbonyl)phenyl]-2-methyl-cyclohex-2-en-1-one]: the inhibition at 0.1 µM came out at 74%.
Same read-out and setting: the figure for `CC1=C(c2ccc(C(=O)N3Cc4cccn4Cc4ccccc43)cc2C)CCC[C@H]1O` [Example 6, (10,11-Dihydro-5H-pyrrolo[2,1-c][1,4]benzodiazepin-10-yl)-[4-((3R)-3-hydroxy-2-methyl-cyclohex-1-en-1-yl)-3-methyl-phenyl]-methanone] is 49%; for `COc1cc(C2=CCCc3ccccc32)c(Cl)cc1C(=O)N1Cc2cccn2Cc2ccccc21` [Example 8, 10-[5-Chloro-4-(3,4-dihydro-naphthalen-1-yl)-2-methoxybenzoyl]-10,11-dihydro-5H-pyrrolo[2,1-c][1,4]benzodiazepine] it is 77%.
Still for that read-out and setting: the figure for `COc1cc(C2=C(C)C(=O)CCC2)c(Cl)cc1C(=O)N1Cc2cccn2Cc2ccccc21` [Example 9, 3-[2-Chloro-5-methoxy-4-(5H-pyrrolo[2,1-c][1,4]benzodiazepin-10(11H)-yl-carbonyl)phenyl]-2-methyl-cyclohex-2-en-1-one] is 69%.
Still for that read-out and setting: in the case of `O=C(c1ccc(C2=CCCCC2)cc1Cl)N1Cc2cccn2Cc2ccccc21` [Example 10, (10,11-dihydro-5H-pyrrolo[2,1-c][1,4]benzodiazepin-10-yl)-[2-chloro-4-(cyclohex-1-en1-yl)-phenyl]-methanone] it was 65%; in that of `O=C(c1ccc(C2=CCCc3ccccc32)cc1Cl)N1Cc2cccn2Cc2ccccc21` [Example 11, (10,11-Dihydro-5H-pyrrolo[2,1-c][1,4]benzodiazepin-10-yl)-[2-chloro-4-(3,4-dihydro-naphthalen-1-yl)-phenyl]-methanone], 90%.
Take `CC1(C)CCCC=C1c1ccc(C(=O)N2Cc3cccn3Cc3ccccc32)c(Cl)c1` [Example 12, (10,11-Dihydro-5H-pyrrolo[2,1-c][1,4]benzodiazepin-10-yl)-[2-chloro-4-(6,6-dimethyl-cyclohex-1-en-1-yl)-phenyl]-methanone]: the inhibition at 0.1 µM turned out to be 82%.
Same read-out and setting: in the case of `CC1=C(c2ccc(C(=O)N3Cc4cccn4Cc4ccccc43)c(Cl)c2)CCCC1=O` [Example 13, (10,11-Dihydro-5H-pyrrolo[2,1-c][1,4]benzodiazepin-10-yl)-[2-chloro-4-(2-methyl-3-oxo-cyclohex-1-en-1-yl)-phenyl]-methanone] it was 55%; in that of `CC1=C(c2ccc(C(=O)N3Cc4cccn4Cc4ccccc43)c(Cl)c2)CCCC1O` (stereo not drawn) [Example 14, (10,11-Dihydro-5H-pyrrolo[2,1-c][1,4]benzodiazepin-10-yl)-[2-chloro-4-(3-hydroxy-2-methyl-cyclohex-1-en-1-yl)-phenyl]-methanone], 38%.
The same measure, in the same setting: the figure for `CC1(C)CCCC=C1c1ccc(C(=O)N2Cc3cccn3Cc3ccccc32)cc1` [Example 17, (10,11-Dihydro-5H-pyrrolo[2,1-c][1,4]benzodiazepin-10-yl)-[4-(6,6-dimethyl-cyclohex-1-en-1-yl)-phenyl]-methanone] is 43%.
Same read-out and setting: in the case of `O=C(c1ccc(C2=CCCc3ccccc32)cc1)N1Cc2cccn2Cc2ccccc21` [Example 18, (10,11-Dihydro-5H-pyrrolo[2,1-c][1,4]benzodiazepin-10-yl)-[4-(3,4-dihydro-naphthalen-1-yl)-phenyl]-methanone] it was 61%.
In the case of `CC1=C(c2ccc(C(=O)N3Cc4cccn4Cc4ccccc43)cc2)C(C)CCC1` (stereo not drawn) [Example 19, (10,11-Dihydro-5H-pyrrolo[2,1-c][1,4]benzodiazepin-10-yl)-[4-(2,6-dimethyl-cyclohex-1-en-1-yl)-phenyl]-methanone], the inhibition at 0.1 µM amounted to 5%.
On to `CC(C)(C)C1CCCC=C1c1ccc(C(=O)N2Cc3cccn3Cc3ccccc32)cc1` (stereo not drawn) [Example 20, (10,11-5H-Dihydro-pyrrolo[2,1-c][1,4]benzodiazepin-10-yl)-[4-(6-tert-butyl-cyclohex-1-en-1-yl)-phenyl]-methanone], for which the “V2 % inhibition @ 100 nM” value was determined as 10%.
Same read-out and setting: in the case of `O=C(c1ccc(C2=CCC3CCC2C3)cc1)N1Cc2cccn2Cc2ccccc21` (stereo not drawn) [Example 21] it was 5%.
With `CC1(C)C2CC=C(c3ccc(C(=O)N4Cc5cccn5Cc5ccccc54)cc3)C1C2` (stereo not drawn) [Example 22, (10,11-Dihydro-5H-pyrrolo[2,1-c][1,4]benzodiazepin-10-yl)-[4-(6,6-dimethyl-bicyclo[3.1.1]hept-2-en-2-yl)-phenyl]-methanone], the inhibition at 0.1 µM amounted to 17%.

The same assay, now with this note: values in parentheses.
For orientation: IC50 means the concentration needed to halve the response being measured. Consider `COc1cc(C2=CCCCC2)c(Cl)cc1C(=O)N1Cc2cccn2Cc2ccccc21` [Example 1, 10-(5-Chloro-4-cyclohex-1-en-1-yl-2-methoxybenzoyl)-10,11-dihydro-5H-pyrrolo[2,1-c][1,4]benzodiazepine], for which the IC50 came out at 176 nM.
As to `Cc1cc(C(=O)N2Cc3cccn3Cc3ccccc32)ccc1C1=CCCc2ccccc21` [Example 3, (10,11-Dihydro-5H-pyrrolo[2,1-c][1,4]benzodiazepin-10-yl)-[4-(3,4-dihydro-naphthalen-1-yl)-3-methyl-phenyl]-methanone], the IC50 was determined as 66 nM.
Still for that read-out and setting: the figure for `CC1=C(c2ccc(C(=O)N3Cc4cccn4Cc4ccccc43)cc2)CCCC1` [Example 7, (10,11-Dihydro-5H-pyrrolo[2,1-c][1,4]benzodiazepin-10-yl)-[4-(2-methyl-cyclohex-1-en-1-yl)-phenyl]-methanone] is 162 nM.
On to `O=C(c1ccc(C2=CCCCC2)cc1)N1Cc2cccn2Cc2ccccc21` [Example 15, (10,11-Dihydro-5H-pyrrolo[2,1-c][1,4]benzodiazepin-10-yl)-(4-cyclohex-1-en-1-yl-phenyl)-methanone], for which the IC50 worked out at 774 nM.
The same measure, in the same setting: the figure for `CC1CCCC=C1c1ccc(C(=O)N2Cc3cccn3Cc3ccccc32)cc1` (stereo not drawn) [Example 16, (10,11-Dihydro-5H-pyrrolo[2,1-c][1,4]benzodiazepin-10-yl)-[4-(6-methyl-cyclohex-1-en-1-yl)-phenyl]-methanone] is 295 nM.
